Results on 23 compounds are retold here after ChEMBL document CHEMBL4828769, “Discovery of AS-0141, a Potent and Selective Inhibitor of CDC7 Kinase for the Treatment of Solid Cancers” (J Med Chem, 2021).

For data set [1], the target named is Cell division cycle 7-related protein kinase (Homo sapiens, UniProt O00311). The data set can be described thus: Inhibition of CDC7 in human COLO205 cells assessed as reduction in MCM2 phosphorylation at S53 residue at 0.1 uM incubated for 48 hrs by Western blot analysis relative to control. The data set is classed as cell-based. The settings on record: COLO 205. Background: Immunoblotting shows a protein as a band on a membrane.

Data set [2] in a line: Inhibition of human CDC7/ASK using FITC-labelled MCM2 substrate in presence of 1 mM of ATP.
Data set [3] in a line: Inhibition of human CDC7/ASK using FITC-labelled MCM2 substrate preincubated for 30 mins followed by substrate addition and measured after 5 hrs in presence of 1 mM of ATP.
A short description of data set [4]: Inhibition of human CDC7/ASK using FITC-labelled MCM2 substrate in presence of 5 uM of ATP.
The subject of a further data set is COLO 205. The data set can be described thus: Induction of cell cycle arrest in human COLO205 cells assessed as accumulation of cells at sub-G1 phase at 1 uM incubated for 48 hrs by propidium iodide staining based flow cytometry analysis. It counts as functional. In general terms: Flow cytometry measures light scatter and fluorescence of single cells or particles in a stream.

Data set [5] in a line: Metabolic stability in human liver microsomes assessed as parent compound remaining after 30 mins. It counts as ADME, Microsome. To be noted: microsomes, 0.5 h.
Data set [6] is described as follows: Metabolic stability in mouse liver microsomes assessed as parent compound remaining after 30 mins. The data set is classed as ADME, Microsome. The settings on record: microsomes, 0.5 h. A general note: Liver microsomes are vesicles of endoplasmic reticulum, rich in cytochrome P450 enzymes.

pIC50: −log10 of the molar value.

Cell division cycle 7-related protein kinase, sequence (O00311 whole entry, looked up): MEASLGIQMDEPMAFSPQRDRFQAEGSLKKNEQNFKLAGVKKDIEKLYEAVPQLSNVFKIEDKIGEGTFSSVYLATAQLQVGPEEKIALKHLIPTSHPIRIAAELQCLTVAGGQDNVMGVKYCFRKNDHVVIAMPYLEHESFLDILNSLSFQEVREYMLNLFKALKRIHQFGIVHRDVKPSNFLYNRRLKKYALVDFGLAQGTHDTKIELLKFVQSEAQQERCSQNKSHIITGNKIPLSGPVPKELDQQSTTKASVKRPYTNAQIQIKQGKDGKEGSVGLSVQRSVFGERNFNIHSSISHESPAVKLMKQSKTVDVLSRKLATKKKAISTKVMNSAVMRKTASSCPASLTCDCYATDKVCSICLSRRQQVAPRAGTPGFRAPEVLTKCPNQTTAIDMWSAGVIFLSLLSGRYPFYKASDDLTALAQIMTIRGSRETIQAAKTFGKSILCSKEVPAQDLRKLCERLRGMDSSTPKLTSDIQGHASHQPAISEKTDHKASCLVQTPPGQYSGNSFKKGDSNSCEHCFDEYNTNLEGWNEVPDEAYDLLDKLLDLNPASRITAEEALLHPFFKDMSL

In general, inhibition refers to the drop in the measured response relative to a control, in per cent. As a reminder, the pIC50 is the negative decadic logarithm of the IC50, by convention in mol/L. `CCOC(=O)C1=C(NN2CCN(C)CC2)O/C(=C\c2c[nH]c3ncccc23)C1=O`: the inhibition in data set [1] is 63%. The pIC50 in data set [2] is 5.97; in data set [3], 8.35; in data set [4], 7.92. In addition, in the data set on COLO 205, the Activity was 15.9%.
For the compound `CCOC(=O)C1=C(N2CCCCCC2)O/C(=C\c2c[nH]c3ncccc23)C1=O`, the Stability result in data set [5] and in data set [6] was “Unstable” in each case. For the same compound, the pIC50 in data set [2] was 6.40; in data set [3], 8.41; in data set [4], 8.25.
For `CCNC1=C(C(=O)OCC)C(=O)/C(=C/c2c[nH]c3ncccc23)O1`, in data set [4], the pIC50 is 7.49.
In the case of `CCOC(=O)C1=C(NN2CCN(CCO)CC2)O/C(=C\c2c[nH]c3ncccc23)C1=O`, the inhibition in data set [1] was 18%. Moreover, the results for the pIC50 in data set [2], in data set [3] and in data set [4] were 6.27, 8.89 and 8.00, respectively. The Activity in the data set on COLO 205 was determined as 0%.
As for `CCOC(=O)C1=C(NCCOC)O/C(=C\c2c[nH]c3ncccc23)C1=O`, the pIC50 in data set [3] is less than 5.00; in data set [4], 7.08.
With `CCOC(=O)C1=C(NN2CCCC2)O/C(=C\c2c[nH]c3ncccc23)C1=O`, the inhibition in data set [1] came to 100%. Moreover, the pIC50 in data set [2] is 6.16; in data set [3], 8.96; in data set [4] it was 8.16. In addition, the Activity in the data set with COLO 205 was 17.4%.
Turning to `CCOC(=O)C1=C(N2CCN(CCO)CC2)O/C(=C\c2c[nH]c3ncccc23)C1=O`, the figures for the pIC50 in data set [2] and in data set [4] were 5.22 and 7.14, respectively.
For `CCOC(=O)C1=C(NCCN(C)C)O/C(=C\c2c[nH]c3ncccc23)C1=O`, the pIC50 in data set [4] is 6.27.
As for `CCOC(=O)C1=C(N2CCC(O)CC2)O/C(=C\c2c[nH]c3ncccc23)C1=O`, the negative-log IC50 (pIC50) in data set [2] is 5.90; in data set [3], 7.64; in data set [4], 7.85.
The matching figures for `CCOC(=O)C1=C(N2CCCN(C)CC2)O/C(=C\c2c[nH]c3ncccc23)C1=O`: less than 5.00, less than 5.00 and 6.88.
For the compound `CCOC(=O)C1=C(N2CCOCC2)O/C(=C\c2c[nH]c3ncccc23)C1=O`, the pIC50 was 5.57 in data set [2] and 7.46 in data set [4].
For the compound `CCOC(=O)C1=C(NC(C)C)O/C(=C\c2c[nH]c3ncccc23)C1=O`, the pIC50 in data set [4] is 7.68.
Consider `CCOC(=O)C1=C(NC2CCN(C)CC2)O/C(=C\c2c[nH]c3ncccc23)C1=O`, for which, in data set [4], the pIC50 is 7.03.
As to `CCOC(=O)C1=C(NN2CCCCCC2)O/C(=C\c2c[nH]c3ncccc23)C1=O`, the inhibition in data set [1] worked out at 100%. Also, the pIC50 is 6.35 in data set [2], 9.05 in data set [3] and 8.30 in data set [4]. The Activity in the data set on COLO 205 is 23.2%.
On to `CCOC(=O)C1=C(N2CCC(CO)CC2)O/C(=C\c2c[nH]c3ncccc23)C1=O`, for which the pIC50 in data set [2] was 5.87; in data set [3], 8.00; in data set [4] it was 7.82.
The matching figures for `CCOC(=O)C1=C(N(C)C2CCCCC2)O/C(=C\c2c[nH]c3ncccc23)C1=O`: 6.02, 7.64 and 8.02.
Regarding `CCOC(=O)C1=C(N2CCCCC2)O/C(=C\c2c[nH]c3ncccc23)C1=O`, the pIC50 in data set [2] is 6.07; in data set [4], 7.80.
With `CCOC(=O)C1=C(NC2CCCCC2)O/C(=C\c2c[nH]c3ncccc23)C1=O`, the pIC50 in data set [2] is 6.18; in data set [3], 7.28; in data set [4] it was 8.11.
As to `CCOC(=O)C1=C(NC2CCCC2)O/C(=C\c2c[nH]c3ncccc23)C1=O`, the pIC50 in data set [2] is 5.83; in data set [4] it was 7.89.
Consider `CCOC(=O)C1=C(NN(CC)CC)O/C(=C\c2c[nH]c3ncccc23)C1=O`, for which, in data set [1], the inhibition turned out to be 67%. The pIC50 was 6.40 in data set [2], 8.62 in data set [3] and 8.16 in data set [4]. The Activity in the data set with COLO 205 was 14.5%.
On to `CCOC(=O)C1=C(Nc2ccccc2Cl)O/C(=C\c2c[nH]c3ncccc23)C1=O`, for which the negative-log IC50 (pIC50) in data set [2] was 6.56; in data set [3], 9.22; in data set [4], 8.62.
Turning to `CCOC(=O)C1=C(NN(C)C2CCCCC2)O/C(=C\c2c[nH]c3ncccc23)C1=O`, the inhibition in data set [1] came out at 35%. In addition, the pIC50 is 6.39 in data set [2], 8.70 in data set [3] and 8.23 in data set [4]. Besides, in the data set with COLO 205, the Activity is 33%.
The matching figures for `CCOC(=O)C1=C(NN2CCOCC2)O/C(=C\c2c[nH]c3ncccc23)C1=O`: 70%, 6.44, 9.82, 8.54 and 46.4%.
